According to patent US11571423B2, “Small molecule modulators of human sting” (Curadev Pharma Limited, priority 2017, dated 2023):

Target: hSTING(R232) (Homo sapiens, UniProt Q86WV6, H232R)
Assay: Luciferase reporter assay in HEK293T-hSTING-Luciferase cells, R232 (wild type) human STING
Format: cell-based
Details: 20 hr stimulation, read-out: R232 human activity (EC50 range)
Source text: Stable Cell Line Generation • a) Stable STING expressing cells—Stable HEK293T STING-expressing cell lines were generated using plasmids purchased from Invivogen, CA, USA, that contain STING cDNA cloned into the pUNO-1 vector under hEF1-HTLV promoter and containing the Blasticidin selection cassette. The plasmids hSTING(R232), hSTING(H232), hSTING(HAQ) were directly procured from Invivogen while hSTING (AQ) and hSTING (Q) were derived from hSTING(HAQ) and hSTING (R232) plasmids respectively by using a PCR based site directed mutagenesis method. These vectors were individually transfected into HEK293T cells using Lipofectamine (Invitrogen) and transfected cells were selected under Blasticidin selection. These transfected cells were further subjected to clonal selection using the limiting dilution method to obtain clonally pure populations of HEK cells transfected with each of the above mentioned human STING variants. Only those clones were selected in which ligand independent activation of STING was minimal. • b) Stable Luciferase reporter gene expressing cells—Stable HEK293T Luciferase reporter gene expressing cell lines were generated using pCDNA4 plasmids under an IRF-inducible promoter. This promoter is comprised of five tandem interferon-stimulated response elements (ISRE) fused to an ISG54 minimal promoter. This vector was transfected into HEK293T cells using Lipofectamine (Invitrogen) and transfected cells were selected under Zeocin selection. These transfected cells were further subjected to clonal selection using the limiting dilution method to obtain clonally pure populations of HEK cells transfected the Luciferase reporter construct. Only those clones were selected in which ligand independent induction of luciferase was minimal.
5×10^5 clonally selected HEK293T-hSTING-Luciferase cells were seeded in 384-well plates in growth medium and stimulated with novel compounds. After 20 hr of stimulation supernatant were removed and secretary reporter gene activity were measured using the Quanti-Luc detection system (Invivogen) on a Spectramax i3X luminometer.
In the tables below, EC50 value ranges for exemplary compounds are given.
All compounds were first tested in a primary screen to obtain a ‘fold-induction’ over baseline levels of protein activity.

hSTING(R232), sequence (Q86WV6 whole entry H232R): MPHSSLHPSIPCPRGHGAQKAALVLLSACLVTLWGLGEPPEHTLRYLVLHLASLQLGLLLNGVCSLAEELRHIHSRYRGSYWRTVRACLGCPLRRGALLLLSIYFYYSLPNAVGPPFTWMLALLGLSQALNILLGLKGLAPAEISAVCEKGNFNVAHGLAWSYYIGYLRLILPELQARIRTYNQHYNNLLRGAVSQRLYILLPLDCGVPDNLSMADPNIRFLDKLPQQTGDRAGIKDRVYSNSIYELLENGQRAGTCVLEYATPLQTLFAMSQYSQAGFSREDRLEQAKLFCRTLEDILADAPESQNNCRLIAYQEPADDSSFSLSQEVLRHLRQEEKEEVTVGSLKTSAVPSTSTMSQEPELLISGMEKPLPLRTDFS

CN1Cc2ccc(C(=O)NCc3cccc(-c4ncco4)c3)cc2N(Cc2c(F)cccc2Cl)C1=O [Example 25, 1-(2-chloro-6-fluorobenzyl)-3-methyl-N-(3-(oxazol-2-yl)benzyl)-2-oxo-1,2,3,4-tetrahydroquinazoline-7-carboxamide]
EC50: > 10 µM

CN1Cc2ccc(C(=O)NCCn3cncn3)cc2N(Cc2c(F)cccc2Cl)C1=O [Example 26, N-(2-(1H-1,2,4-triazol-l-yl)ethyl)-1-(2-chloro-6-fluorobenzyl)-3-methyl-2-oxo-1,2,3,4-tetrahydroquinazoline-7-carboxamide]
EC50: > 10 µM

CN1Cc2ccc(C(=O)NCc3cc4cc(O)ccc4o3)cc2N(Cc2c(F)cccc2Cl)C1=O [Example 27, 1-(2-chloro-6-fluorobenzyl)-N-((5-hydroxybenzof uran-2-yl)methyl)-3-methyl-2-oxo-1.2,3,4-tetrahydroquin azoline-7-carboxamide]
EC50: 1 to 10 µM

CN1Cc2ccc(C(=O)NCc3cccc(-c4ccn(C)n4)c3)cc2N(Cc2c(F)cccc2Cl)C1=O [Example 28, 1-(2-chloro-6-fluorobenzyl)-3-methyl-N-(3-(1-methyl-1H-pyrazol-3-yl)benzyl)-2-oxo-1,2,3,4-tetrahydroquinazoline-7-carboxamide]
EC50: > 10 µM

CN1Cc2ccc(C(=O)NCc3cccc(-c4ccnn4C)c3)cc2N(Cc2c(F)cccc2Cl)C1=O [Example 29, 1-(2-chloro-6-fluorobenzyl)-3-methyl-N-(3-(1-methyl-1H-pyrazol-5-yl)benzyl)-2-oxo-1,2,3,4-tetrahydroquinazoline-7-carboxamide]
EC50: > 10 µM

CN1Cc2ccc(C(=O)NCc3ccccc3F)cc2N(Cc2c(F)cccc2Cl)C1=O [Example 30, 1-(2-chloro-6-fluorobenzyl)-N-(2-fluorobenzyl)-3-methyl-2-oxo-1,2,3,4-tetrahydroquinazoline-7-carboxamide]
EC50: 1 to 10 µM

CN1CCN(c2cccc(CNC(=O)c3ccc4c(c3)N(Cc3c(F)cccc3Cl)C(=O)N(C)C4)c2)CC1 [Example 31]
EC50: > 10 µM

CN1Cc2ccc(C(=O)NCc3ccc4occc4c3)cc2N(Cc2c(F)cccc2Cl)C1=O [Example 32, N-(benzofuran-5-ylmethyl)-1-(2-chloro-6-fluorobenzyl)-3-methyl-2-oxo-1,2,3,4-tetrahydroquinazoline-7-carboxamide]
EC50: 1 to 10 µM

Cc1cc(CN2C(=O)N(C)Cc3ccc(C(=O)NCc4c(F)cc(F)cc4F)cc32)no1 [Example 33, 3-methyl-1-((5-methylisoxazol-3-yl)methyl)-2-oxo-N-(2,4,6-trifluorobenzyl)-1,2,3,4-tetrahydroquinazoline-7-carboxamide]
EC50: 1 to 10 µM

Cn1cnc(N2Cc3ccc(C(=O)NCc4c(F)cc(F)cc4F)cc3N(Cc3c(F)cccc3Cl)C2=O)c1 [Example 34, 1-(2-chloro-6-fluorobenzyl)-3-(1-methyl-1H-imidazol-4-yl)-2-oxo-N-(2,4,6-trifluorobenzyl)-1,2,3,4-tetrahydroquinazoline-7-carboxamide]
EC50: > 10 µM

CN1Cc2ccc(C(=O)NCc3c(F)cc(F)cc3F)cc2N(Cc2cnsn2)C1=O [Example 35, l-((l,2,5-thiadiazol-3-yl)methyl)-3-methyl-2-oxo-N-(2,4,6-trifluorobenzyl)-1,2,3,4-tetrahydroquinazoline-7-carboxamide]
EC50: > 10 µM

Cc1nc(CN2C(=O)N(C)Cc3ccc(C(=O)NCc4c(F)cc(F)cc4F)cc32)co1 [Example 36, 3-methyl-1-((2-methyloxazol-4-yl)methyl)-2-oxo-N-(2,4,6-trifluorobenzyl)-l,2,3,4-tetrahydroquinazoline-7-carboxamide]
EC50: > 10 µM

CN1Cc2ccc(C(=O)NCc3c(F)cc(F)cc3F)cc2N(Cc2cn(C)cn2)C1=O [Example 37, 3-methyl-1-((1-methyl-1H-imidazol-4-yl)methyl)-2-oxo-N-(2,4,6-trifluorobenzyl)-1,2,3,4-tetrahydroquinazoline-7-carboxamide]
EC50: > 10 µM

Cc1ccc(-c2nc(CN3C(=O)N(C)Cc4ccc(C(=O)NCc5c(F)cc(F)cc5F)cc43)c(C)o2)cc1 [Example 40, 3-methyl-1-((5-methyl-2-(p-tolyl)oxazol-4-yl)methyl)-2-oxo-N-(2,4,6-trifluorobenzyl)-1,2,3,4-tetrahydroquinazoline-7-carboxamide]
EC50: > 10 µM

COc1cccc(F)c1CNC(=O)c1ccc2c(c1)N(Cc1c(F)cccc1Cl)C(=O)N(C)C2 [Example 41, 1-(2-chloro-6-fluorobenzyl)-N-(2-fluoro-6-methoxybenzyl)-3-methyl-2-oxo-1,2,3,4-tetrahydroquinazoline-7-carboxamide]
EC50: > 10 µM

Cc1oc(-c2ccc(F)cc2)nc1CN1C(=O)N(C)Cc2ccc(C(=O)NCc3c(F)cc(F)cc3F)cc21 [Example 42, l-((2-(4-fluorophenyl)-5-methyloxazol-4-yl)methyl)-3-methyl-2-oxo-N-(2,4,6-trifluorobenzyl)-1,2,3,4-tetrahydroquinazoline-7-carboxamide]
EC50: 1 to 10 µM

CN1Cc2ccc(C(=O)NCc3cccc4c3OCO4)cc2N(Cc2c(F)cccc2Cl)C1=O [Example 43, N-(benzo[d][1,3]dioxol-4-ylmethyl)-1-(2-chloro-6-fluorobenzyl)-3-methyl-2-oxo-1,2,3,4-tetrahydroquinazoline-7-carboxamide]
EC50: > 10 µM

CN1Cc2ccc(C(=O)NCc3cccc4c3OCCO4)cc2N(Cc2c(F)cccc2Cl)C1=O [Example 44, l-(2-chloro-6-fluorobenzyl)-N-((2,3-dihydrobenzo[b][1,4]dioxin-5-yl)methyl)-3-methyl-2-oxo-1,2,3,4-tetrahydroquinazoline-7-carboxamide]
EC50: > 10 µM

CN1Cc2ccc(C(=O)NCc3c(F)cc(F)cc3F)cc2N(Cc2cn3cc(F)ccc3n2)C1=O [Example 45, 1-((6-fluoroimidazo[1,2-a]pyridin-2-yl)methyl)-3-methyl-2-oxo-N-(2,4,6-trifluorobenzyl)-l,2,3,4-tetrahydroquinazoline-7-carboxamide]
EC50: > 10 µM

COc1cc(F)ccc1CN1C(=O)N(C)Cc2ccc(C(=O)NCc3c(F)cc(F)cc3F)cc21 [Example 46, l-(4-fluoro-2-methoxybenzyl)-3-methyl-2-oxo-N-(2,4,6-trifluorobenzyl)-1,2,3,4-tetrahydroquinazoline-7-carboxamide]
EC50: 1 to 10 µM

COc1cccc2cc(CNC(=O)c3ccc4c(c3)N(Cc3c(F)cccc3Cl)C(=O)N(C)C4)oc12 [Example 47, 1-(2-chloro-6-fluorobenzyl)-N-((7-methoxybenzofuran-2-yl)methyl)-3-methyl-2-oxo-1,2,3,4-tetrahydroquinazoline-7-carboxamide]
EC50: > 10 µM

CN1Cc2ccc(C(=O)NCc3cc4cc([N+](=O)[O-])ccc4o3)cc2N(Cc2c(F)cccc2Cl)C1=O [Example 48, 1-(2-chloro-6-fluorobenzyl)-3-methyl-N-((5-nitrobenzofuran-2-yl)methyl)-2-oxo-1,2,3,4-tetrahydroquinazoline-7-carboxamide]
EC50: > 10 µM

CON1Cc2ccc(C(=O)NCc3c(F)cc(F)cc3F)cc2N(Cc2c(F)cccc2Cl)C1=O [Example 49, 1-(2-chloro-6-fluorobenzyl)-3-methoxy-2-oxo-N-(2,4,6-trifluorobenzyl)-1,2,3,4-tetrahydroquinazoline-7-carboxamide]
EC50: 1 to 10 µM

CN1Cc2ccc(C(=O)NCc3cccc4occc34)cc2N(Cc2c(F)cccc2Cl)C1=O [Example 50, N-(benzofuran-4-ylmethyl)-1-(2-chloro-6-fluorobenzyl)-3-methyl-2-oxo-1,2,3,4-tetrahydroquinazoline-7-carboxamide]
EC50: > 10 µM

CN1Cc2ccc(C(=O)NCc3ccc4cnn(C)c4c3)cc2N(Cc2c(F)cccc2Cl)C1=O [Example 51, 1-(2-chloro-6-fluorobenzyl)-3-methyl-N-((1-methyl-1H-indazol-6-yl)methyl)-2-oxo-1,2,3,4-tetrahydroquinazoline-7-carboxamide]
EC50: > 10 µM

CN1Cc2ccc(C(=O)NCc3ccc4ccoc4c3)cc2N(Cc2c(F)cccc2Cl)C1=O [Example 52, N-(benzofuran-6-ylmethyl)-1-(2-chloro-6-fluorobenzyl)-3-methyl-2-oxo-1,2,3,4-tetrahydroquinazoline-7-carboxamide]
EC50: 1 to 10 µM

CN1Cc2ccc(C(=O)NCc3c(F)cc(F)cc3F)cc2N(Cc2ccnn2C)C1=O [Example 53, 3-methyl-1-((1-methyl-1H-pyrazol-5-yl)methyl)-2-oxo-N-(2,4,6-trifluorobenzyl)-1,2,3,4-tetrahydroquinazoline-7-carboxamide]
EC50: > 10 µM

CN1Cc2ccc(C(=O)NCc3c(F)cc(F)cc3F)cc2N(Cc2cn(C)nn2)C1=O [Example 55, 3-methyl-1-((1-methyl-1H-1,2,3-triazol-4-yl)methyl)-2-oxo-N-(2,4,6-trifluorobenzyl)-1,2,3,4-tetrahydroquinazoline-7-carboxamide]
EC50: > 10 µM
